Test results published in paper doi:10.1101/2025.05.23.655777v1 (biorxiv, 2025).

Molecular target: GABA-AT; GABA aminotransferase 1 (recombinant) (Arabidopsis thaliana, UniProt Q94CE5)
Assay: inhibition kinetics, LDH-coupled or HPLC assay, competitive fit
Assay type: biochemical

N[C@@H](CS)C(=O)O [L-cysteine]
Ki: 420 µM
